ChEMBL document CHEMBL3045627, “Effect of allylisothiocyanate on Sitophilus oryzae, Tribolium confusum and Plodia interpunctella: Toxicity and effect on insect mitochondria” (2012)
Activity calls are given as the source filed them. No cut-off for these calls is given here.

Columns and labels:
Sitophilus oryzae [1] = experiment: Insecticidal activity against adult Sitophilus oryzae (rice weevil) in wheat grain assessed as mortality at 85% EC dry formulation applied as fumes for 24 hr measured after 7 days by fumigation bioassay; format: functional
Tribolium confusum [2] = experiment: Insecticidal activity against third-instar larval stage of Tribolium confusum (confused flour beetle) assessed as enlarged mitochondria with reduced quantity of cristae, lower electron dense matrix, vacuolization and rarefaction of mitochondrial matrix in the epithelial cells of epidermal layer in the integument at LC20 applied as fumes measured after 24 hr by electron microscopic analysis; format: functional, organism-based; conditions: Epithelial cell
Tribolium confusum [3] = experiment: Insecticidal activity against third-instar larval stage of Tribolium confusum (confused flour beetle) assessed as vacuolization of mitochondrial matrix, nucleus with well distributed chromatin, enlarged mitochondria with few cristae, reduced electron density, matrix rarefaction in the epithelial cells of epidermal layer in the integument at LC50 applied as fumes measured after 24 hr by electron microscopic analysis; format: functional, organism-based; conditions: Epithelial cell
Tribolium confusum [4] = experiment: Insecticidal activity against third-instar larval stage of Tribolium confusum (confused flour beetle) assessed as morphological changes in anterior, posterior and middle regions of midgut with attatched malphigian tubules applied as vapours measured after 24 hr by light microscopy; format: functional, organism-based
Tribolium confusum [5] = experiment: Insecticidal activity against third-instar larval stage of Tribolium confusum (confused flour beetle) assessed as change in the integument colour to dark in the middle area with slight effect toward both ends applied as vapour measured after 24 hr by light microscopic analysis; format: functional, organism-based
Tribolium confusum [6] = experiment: Insecticidal activity against larvae of Tribolium confusum (confused flour beetle) in broken wheat assessed as mortality at 11.3 microl/L air at 85% EC formulation applied as fumes for 72 hr measured after 14 days by fumigation bioassay; format: functional
Tribolium confusum [7] = experiment: Insecticidal activity against adult Tribolium confusum (confused flour beetle) in broken wheat assessed as mortality at 11.3 microl/L air at 85% EC formulation applied as fumes for 72 hr measured after 14 days by fumigation bioassay; format: functional
Sitophilus oryzae [8] = experiment: Insecticidal activity against adult Sitophilus oryzae (rice weevil) in wheat grain assessed as mortality at 11.3 microl/L air at 85% EC formulation applied as fumes for 72 hr measured after 7 days by fumigation bioassay; format: functional
Tribolium confusum [9] = experiment: Insecticidal activity against larvae of Tribolium confusum (confused flour beetle) in broken wheat assessed as mortality at 9.4 microl/L air at 85% EC formulation applied as fumes for 72 hr measured after 14 days by fumigation bioassay; format: functional
Tribolium confusum [10] = experiment: Insecticidal activity against adult Tribolium confusum (confused flour beetle) in broken wheat assessed as mortality at 9.4 microl/L air at 85% EC formulation applied as fumes for 72 hr measured after 14 days by fumigation bioassay; format: functional
Sitophilus oryzae [11] = experiment: Insecticidal activity against adult Sitophilus oryzae (rice weevil) in wheat grain assessed as mortality at 9.4 microl/L air at 85% EC formulation applied as fumes for 72 hr measured after 7 days by fumigation bioassay; format: functional
Tribolium confusum [12] = experiment: (§1) Insecticidal activity against third-instar larval stage of Tribolium confusum (confused flour beetle) assessed as numerous mitochondria with few cristae, reduced electron density, matrix rarefaction and vacuolization of the mitochondrial matrix in regenerative nidi cells of the midgut at LC20 applied as fumes measured after 24 hr by electron microscopic analysis; format: functional, organism-based
Tribolium confusum [13] = experiment: Insecticidal activity against larvae of Tribolium confusum (confused flour beetle) in broken wheat assessed as mortality at 4.3 microl/L air at 85% EC formulation applied as fumes for 72 hr measured after 14 days by fumigation bioassay; format: functional
Tribolium confusum [14] = experiment: Insecticidal activity against adult Tribolium confusum (confused flour beetle) in broken wheat assessed as mortality at 4.3 microl/L air at 85% EC formulation applied as fumes for 72 hr measured after 14 days by fumigation bioassay; format: functional
Sitophilus oryzae [15] = experiment: Insecticidal activity against adult Sitophilus oryzae (rice weevil) in wheat grain assessed as mortality at 4.3 microl/L air at 85% EC formulation applied as fumes for 72 hr measured after 7 days by fumigation bioassay; format: functional
Plodia interpunctella [16] = experiment: Insecticidal activity against larvae of Plodia interpunctella (Indian meal moth ) in wheat grain assessed as mortality at 85% EC wettable formulation applied as fumes for 72 hr measured after 7 days by fumigation bioassay; format: functional
Tribolium confusum [17] = experiment: as §1, with “columnar” for “regenerative nidi”; format: functional, organism-based
Tribolium confusum [18] = experiment: Insecticidal activity against larvae of Tribolium confusum (confused flour beetle) in broken wheat assessed as mortality at 85% EC wettable formulation applied as fumes for 72 hr measured after 14 days by fumigation bioassay; format: functional
Tribolium confusum [19] = experiment: Insecticidal activity against adult Tribolium confusum (confused flour beetle) in broken wheat assessed as mortality at 85% EC wettable formulation applied as fumes for 72 hr measured after 14 days by fumigation bioassay; format: functional
Sitophilus oryzae [20] = experiment: Insecticidal activity against adult Sitophilus oryzae (rice weevil) in wheat grain assessed as mortality at 85% EC wettable formulation fumigated for 72 hr applied as fumes after 7 days by fumigation bioassay; format: functional
Plodia interpunctella [21] = experiment: Insecticidal activity against larvae of Plodia interpunctella (Indian meal moth ) in wheat grain assessed as mortality at 85% EC wettable formulation applied as fumes for 24 hr measured after 7 days by fumigation bioassay; format: functional
Tribolium confusum [22] = experiment: Insecticidal activity against larvae of Tribolium confusum (confused flour beetle) in broken wheat assessed as mortality at 85% EC wettable formulation applied as fumes for 24 hr measured after 14 days by fumigation bioassay; format: functional
Tribolium confusum [23] = experiment: Insecticidal activity against adult Tribolium confusum (confused flour beetle) in broken wheat assessed as mortality at 85% EC wettable formulation applied as fumes for 24 hr measured after 14 days by fumigation bioassay; format: functional
Sitophilus oryzae [24] = experiment: Insecticidal activity against adult Sitophilus oryzae (rice weevil) in wheat grain assessed as mortality at 85% EC wettable formulation applied as fumes for 24 hr measured after 7 days by fumigation bioassay; format: functional
Plodia interpunctella [25] = experiment: Insecticidal activity against larvae of Plodia interpunctella (Indian meal moth ) in wheat grain assessed as mortality at 85% EC dry formulation applied as fumes for 72 hr measured after 7 days by fumigation bioassay; format: functional
Tribolium confusum [26] = experiment: Insecticidal activity against larvae of Tribolium confusum (confused flour beetle) in broken wheat assessed as mortality at 85% EC dry formulation applied as fumes for 72 hr measured after 14 days by fumigation bioassay; format: functional
Tribolium confusum [27] = experiment: Insecticidal activity against adult Tribolium confusum (confused flour beetle) in broken wheat assessed as mortality at 85% EC dry formulation applied as fumes for 72 hr measured after 14 days by fumigation bioassay; format: functional
Sitophilus oryzae [28] = experiment: Insecticidal activity against adult Sitophilus oryzae (rice weevil) in wheat grain assessed as mortality at 85% EC dry formulation applied as fumes for 72 hr measured after 7 days by fumigation bioassay; format: functional
Plodia interpunctella [29] = experiment: Insecticidal activity against larvae of Plodia interpunctella (Indian meal moth ) in wheat grain assessed as mortality at 85% EC dry formulation applied as fumes for 24 hr measured after 7 days by fumigation bioassay; format: functional
Tribolium confusum [30] = experiment: Insecticidal activity against larvae of Tribolium confusum (confused flour beetle) in broken wheat assessed as mortality at 85% EC dry formulation applied as fumes for 24 hr measured after 14 days by fumigation bioassay; format: functional
Tribolium confusum [31] = experiment: Insecticidal activity against adult Tribolium confusum (confused flour beetle) in broken wheat assessed as mortality at 85% EC dry formulation applied as fumes for 24 hr measured after 14 days by fumigation bioassay; format: functional
Tribolium confusum [32] = experiment: Insecticidal activity against larvae of Tribolium confusum (confused flour beetle) in broken wheat assessed as mortality at 5 mg/l applied as fumes for 72 hr measured after 14 days by fumigation bioassay; conditions: in Triticum aestivum
Tribolium confusum [33] = experiment: Insecticidal activity against adult Tribolium confusum (confused flour beetle) in broken wheat assessed as mortality at 5 mg/l applied as fumes for 72 hr measured after 14 days by fumigation bioassay; conditions: in Triticum aestivum
Sitophilus oryzae [34] = experiment: whole plant or invertebrate; conditions: in Triticum aestivum

C=CCN=C=S [ALLYL ISOTHIOCYANATE]
LC50 (Sitophilus oryzae [1]): 2.6 uL/L
LC95 (Sitophilus oryzae [1]): 4.7 uL/L
Activity (Tribolium confusum [2]): Active
Activity (Tribolium confusum [3]): Active
Activity (Tribolium confusum [4]): Active
Activity (Tribolium confusum [5]): Active
mortality (Tribolium confusum [6]): 100%
mortality (Tribolium confusum [7]): 100%
mortality (Sitophilus oryzae [8]): 100%
mortality (Tribolium confusum [9]): 93%
mortality (Tribolium confusum [10]): 100%
mortality (Sitophilus oryzae [11]): 100%
Activity (Tribolium confusum [12]): Active
mortality (Tribolium confusum [13]): 48%
mortality (Tribolium confusum [14]): 70%
mortality (Sitophilus oryzae [15]): 100%
LC50 (Plodia interpunctella [16]): 2.3 uL/L
LC95 (Plodia interpunctella [16]): 5 uL/L
Activity (Tribolium confusum [17]): Active
LC50 (Tribolium confusum [18]): 5.5 uL/L
LC95 (Tribolium confusum [18]): 9.9 uL/L
LC50 (Tribolium confusum [19]): 4.2 uL/L
LC95 (Tribolium confusum [19]): 7.8 uL/L
LC50 (Sitophilus oryzae [20]): 2.2 uL/L
LC95 (Sitophilus oryzae [20]): 3.7 uL/L
LC50 (Plodia interpunctella [21]): 3.7 uL/L
LC95 (Plodia interpunctella [21]): 8.7 uL/L
LC50 (Tribolium confusum [22]): 7.1 uL/L
LC50 (Tribolium confusum [23]): 5.5 uL/L
LC95 (Tribolium confusum [23]): 12.8 uL/L
LC50 (Sitophilus oryzae [24]): 2.7 uL/L
LC95 (Sitophilus oryzae [24]): 4.2 uL/L
LC50 (Plodia interpunctella [25]): 2.2 uL/L
LC95 (Plodia interpunctella [25]): 4.1 uL/L
LC50 (Tribolium confusum [26]): 4.7 uL/L
LC95 (Tribolium confusum [26]): 9.5 uL/L
LC50 (Tribolium confusum [27]): 3.7 uL/L
LC95 (Tribolium confusum [27]): 6.6 uL/L
LC50 (Sitophilus oryzae [28]): 2 uL/L
LC95 (Sitophilus oryzae [28]): 3.4 uL/L
LC50 (Plodia interpunctella [29]): 3.5 uL/L
LC95 (Plodia interpunctella [29]): 7.7 uL/L
LC50 (Tribolium confusum [30]): 7.3 uL/L
LC50 (Tribolium confusum [31]): 4.7 uL/L
LC95 (Tribolium confusum [31]): 9.3 uL/L

P [PHOSPHINE]
mortality at 5 µg/mL (Tribolium confusum [32]): 100%
mortality at 5 µg/mL (Tribolium confusum [33]): 100%
mortality at 5 µg/mL (Sitophilus oryzae [34]): 100%
